According to ChEMBL document CHEMBL3132846 (Medchemcomm, 2014):
Calls of active or inactive are those of the source. The calls are words filed in the database; no cut-off is given here.

Experiments:
[1] = Cytotoxicity against human JeKo1 cells after 48 hrs by MTT assay; format: functional, cell-based; conditions: JeKo-1, 48 h
[2] = Cytotoxicity against human SKBR3 cells after 48 hrs by MTT assay; format: functional, cell-based; conditions: SK-BR-3, 48 h
[3] = system: CCRF S-180; assay: Antitumor activity against mouse S180 cells allografted in ICR mouse assessed as tumor growth inhibition at 200 mg/kg, ig qd administered for 6 days relative to vehicle-treated control; format: functional; conditions: CCRF S-180, po, 144 h, route intragastric, read-out: TGI
[4] = system: BeWo; assay: Cytotoxicity against human Bewo cells after 48 hrs by MTT assay; format: functional, cell-based
[5] = system: HUVEC; assay: Antiangiogenic activity against HUVEC assessed as inhibition of cell migration at 10 ug/ml after 24 hrs by wound healing assay relative to control; format: functional; conditions: Homo sapiens
[6] = system: SiHa; assay: Cytotoxicity against human SiHa cells after 48 hrs by MTT assay; format: functional, cell-based
[7] = system: HUVEC; assay: Antiangiogenic activity against HUVEC assessed as inhibition of cell migration at 2.5 ug/ml after 24 hrs by wound healing assay relative to control; format: functional; conditions: Homo sapiens
[8] = system: HeLa; assay: Cytotoxicity against human HeLa cells after 48 hrs by MTT assay; format: functional, cell-based
[9] = system: A549; assay: Cytotoxicity against human A549 cells after 48 hrs by MTT assay; format: functional, cell-based; conditions: A549, 48 h
[10] = system: Mus musculus; assay: Toxicity in ICR mouse allografted with mouse S180 cells assessed as body weight loss at 200 mg/kg, ig qd administered for 6 days relative to vehicle-treated control; format: organism-based, CCRF S-180; set-up: dose 200 mg/kg, route intragastric; conditions: in vivo, po, 144 h
[11] = system: HL-60; assay: Cytotoxicity against human HL60 cells after 48 hrs by MTT assay; format: functional, cell-based; conditions: HL-60, 48 h
[12] = system: MCF7; assay: Cytotoxicity against human MCF7 cells after 48 hrs by MTT assay; format: functional, cell-based; conditions: MCF7, 48 h
[13] = system: HUVEC; assay: Antiangiogenic activity against HUVEC assessed as inhibition of tube formation at 12.5 ug/ml after 24 hrs relative to control; format: functional, cell-based; conditions: Homo sapiens
[14] = system: HUVEC; assay: Cytotoxicity against HUVEC assessed as mitochondrial metabolism after 48 hrs by MTT assay; format: cell-based, Homo sapiens; conditions: for IC50: Homo sapiens, HUVEC; for Activity: human, huvec
[15] = system: Ishikawa; assay: Cytotoxicity against human Ishikawa cells after 48 hrs by MTT assay; format: functional, cell-based
[16] = Cytotoxicity against human NCI-460 cells after 48 hrs by MTT assay; format: functional, cell-based; conditions: NCI-460, 48 h
[17] = Cytotoxicity against human Bel7402 cells after 48 hrs by MTT assay; format: functional, cell-based; conditions: Bel-7402, 48 h
[18] = Cytotoxicity against human BGC823 cells after 48 hrs by MTT assay; format: functional, cell-based; conditions: BGC-823, 48 h

Compound	IC50 [1]	IC50 [2]	inhibition in vivo at 200 mg/kg [3]	IC50 [4]	inhibition at 10 µg/mL [5]	IC50 [6]	inhibition at 2.5 µg/mL [7]	IC50 [8]	IC50 [9]	Activity [10]	IC50 [11]	IC50 [12]	Activity [13]	IC50 [14]	Activity [14]	IC50 [15]	IC50 [16]	IC50 [17]	IC50 [18]
CC(C)=CCC(=O)NNC(=O)Cc1cccc2c(=O)c3ccc(C)c(C)c3oc12	> 10 µg/mL	> 10 µg/mL	–	–	–	–	–	–	–	–	–	–	–	–	–	–	–	–	–
Cc1ccc2c(=O)c3cccc(CC(=O)Nc4ccc(Cl)cc4)c3oc2c1C	–	–	27.8%	32 µM	65.8%	46.6 µM	45.6%	> 100 µM	9.39 µM	12.37%	67.6 µM	> 100 µM	Active	6.87 µM	Dose-dependent effect	> 100 µM	–	–	–
Cc1ccc2c(=O)c3cccc(CC(=O)N/N=C/c4ccc(O)c(O)c4)c3oc2c1C	–	–	–	–	–	–	–	–	> 100 µM	–	–	–	–	–	–	–	–	–	–
Cc1ccc2c(=O)c3cccc(CC(=O)Nc4ccc(Cl)c(Cl)c4)c3oc2c1C	–	–	29.6%	> 100 µM	89.7%	96.1 µM	67.6%	18.7 µM	92 µM	12.87%	42.4 µM	> 100 µM	Active	6.4 µM	Dose-dependent effect	> 100 µM	–	–	–
CCOC(=O)CCNC(=O)Cc1cccc2c(=O)c3ccc(C)c(C)c3oc12	–	–	–	26.2 µM	–	98 µM	–	> 100 µM	35 µM	–	79.9 µM	40.6 µM	–	–	–	> 100 µM	> 100 µM	> 100 µM	76.4 µM
COc1cc(/C=N/NC(=O)Cc2cccc3c(=O)c4ccc(C)c(C)c4oc23)ccc1O	–	–	–	–	–	–	–	–	> 100 µM	–	–	–	–	–	–	–	–	–	–
CCCNC(=O)Cc1cccc2c(=O)c3ccc(C)c(C)c3oc12	–	–	25.6%	> 100 µM	–	92 µM	–	> 100 µM	28.9 µM	10.32%	> 100 µM	> 100 µM	–	–	–	> 100 µM	> 100 µM	> 100 µM	> 100 µM
Cc1ccc2c(=O)c3cccc(CC(=O)Nc4ccccc4)c3oc2c1C	–	–	18.4%	> 100 µM	–	> 100 µM	–	> 100 µM	77.6 µM	10.2%	4.59 µM	> 100 µM	–	> 20 µM	–	> 100 µM	> 100 µM	> 100 µM	> 100 µM
Cc1ccc2c(=O)c3cccc(CC(=O)N/N=C/c4ccc(O)cc4)c3oc2c1C	–	–	–	73.7 µM	–	> 100 µM	–	> 100 µM	35.9 µM	–	> 100 µM	> 100 µM	–	–	–	> 100 µM	–	–	–
Cc1ccc2c(=O)c3cccc(CC(=O)N/N=C/c4cc(Cl)ccc4O)c3oc2c1C	> 10 µg/mL	> 10 µg/mL	–	76.4 µM	–	> 100 µM	–	36.2 µM	11.5 µM	–	20.8 µM	> 100 µM	–	> 20 µM	–	68.4 µM	> 100 µM	> 100 µM	> 100 µM
CCOC(=O)c1ccc(NC(=O)Cc2cccc3c(=O)c4ccc(C)c(C)c4oc23)cc1	–	–	–	45.5 µM	–	> 100 µM	–	> 100 µM	39.6 µM	–	90.9 µM	> 100 µM	–	–	–	> 100 µM	> 100 µM	> 100 µM	> 100 µM
COc1ccc(/C=N/NC(=O)Cc2cccc3c(=O)c4ccc(C)c(C)c4oc23)cc1O	–	–	–	> 100 µM	–	> 100 µM	–	> 100 µM	54.9 µM	–	> 100 µM	> 100 µM	–	–	–	> 100 µM	> 100 µM	> 100 µM	> 100 µM
C#CCOC(=O)Cc1cccc2c(=O)c3ccc(C)c(C)c3oc12	> 10 µg/mL	> 10 µg/mL	–	> 100 µM	–	> 100 µM	–	> 100 µM	> 100 µM	–	> 100 µM	> 100 µM	–	–	–	> 100 µM	> 100 µM	> 100 µM	81.5 µM
COc1c(O)ccc(/C=N/NC(=O)Cc2cccc3c(=O)c4ccc(C)c(C)c4oc23)c1[N+](=O)[O-]	–	–	–	–	–	–	–	–	> 100 µM	–	–	–	–	–	–	–	–	–	–
Cc1ccc2c(=O)c3cccc(CC(=O)N/N=C/c4ccc5c(c4)OCO5)c3oc2c1C	–	–	–	> 100 µM	–	> 100 µM	–	> 100 µM	86.8 µM	–	> 100 µM	> 100 µM	–	–	–	> 100 µM	> 100 µM	> 100 µM	> 100 µM
